The test system of one data set is CYP204A1. The settings on record: for accumulated amount of pregnenolone / added substrate remained: strain BP172, same reaction as Example 6; for Conversion rate: strain BP172, same reaction as Example 6 (28° C., 5 hours). On the procedure: Novosphingobium aromaticivorans (ATCC 700278) was inoculated into an L medium, and it was then cultured at 30° C. for 2 days. Thereafter, genomic DNA was extracted from the cell mass obtained in the same manner as that of Example 1. A fragment comprising a CYPSS204A1 gene and a ferredoxin gene located downstream thereof was amplified from the above-described genomic DNA by using a primer CYP-5F (SEQ ID NO: 9) and a primer CYP-6R (SEQ ID NO: 10) and also using La Taq polymerase (manufactured by Takara Bio INC.). The temperature conditions applied during this operation were 94° C./3 min, 30 cycles of (98° C./20 sec, 63° C./30 sec, and 68° C./2 min), and 72° C./5 min.
Escherichia coli BL21(DE3) was transformed with this plasmid, and the obtained cell strain was named as BP172.
(§1) The Escherichia coli expression strain BP215 was inoculated into 2 ml of an M9 mix medium (Na2HPO4: 0.68%, KH2PO4: 0.3%, NaCl: 0.05%, NH4C;: 0.01%, Casamino acid: 1%, D-Glucose: 0.4%, CaCl2: 0.1 mM, MgCl2: 1 mM, Thiamine: 0.002%, FeSO4: 0.1 mM, Carbenicillin: 0.005%), and it was then subjected to shaking culture at 30° C. for 17 hours, so as to obtain pre-culture solution. 0.25 ml of this pre-culture solution was inoculated into 25 ml of the main culture medium (Na2HPO4: 0.68%, KH2PO4: 0.3%, NaCl: 0.05%, NH4Cl: 0.01%, Casamino acid: 1%, CaCl2: 0.1 mM, MgCl2: 1 mM, Thiamine: 0.002%, FeSO4: 0.1 mM, Carbenicillin: 0.005%, Overnight Express™ solution: 7%, 5-Aminolevlic acid: 0.008%) using Overnight Express™ Autoinduction System (Novagen Cat. No. 71300-4), and it was then subjected to shaking culture at 25° C. for 24 hours. 5 ml of the obtained main culture solution was centrifuged (3500 rpm, 10 minutes) to obtain cell mass, and 1 ml of CV2 buffer (50 mM (pH) potassium phosphate buffer containing glycerol: 2%, carbenicillin: 0.005%, and isopropyl β-D-1-thiogalactopyranoside: 0.1 mM) was added to the obtained cell mass. Thereafter, 0.01 ml of the methanol solution of 1% 4-cholesten-3-one and 0.02 ml of an aqueous solution of 25% methyl-β-cyclodextrin were added to the mixed solution, and the obtained mixture was then shaken at 28° C. for 5 hours for the reaction. After completion of the reaction, 4 ml of methanol was added to the reaction solution, and they were then fully mixed. The obtained mixture was centrifuged, and the upper layer was then analyzed by HPLC.
As substrates, 4-cholesten-3-one, cholesterol, 7-dehydrocholesterol, ergosterol, 13-sitosterol, stigmasterol, campesterol, desmosterol, (20S)-20-hydroxycholest-4-en-3-one, (22R)-22-hydroxycholest-4-en-3-one, (20R,22R)-20,22-dihydroxycholest-4-en-3-one, and (20R,22S)-20,22-dihydroxycholest-4-en-3-one were used. Each substrate was subjected to the same reaction as that of Example 6, separately, and the generated product was then analyzed by HPLC.

For the next data set, the system named is CYPSS204A. The data set is described as follows: Conversion reaction of substrates by Escherichia coli expression strain BP215. It counts as cell-based, Sphingomonas subterranea NBRC 16086. The settings on record: strain BP215, 28° C., 5 hours; for Conversion rate: to progesterone, pregnenolone or 7-dehydropregnenolone. On the procedure:
The temperature conditions applied during the PCR were 95° C./5 min, 30 cycles of (98° C./30 sec, 60° C./30 sec, and 68° C./2 min), and 68° C./10 min.
Analysis conditions: Using Chromolith speed rod RP18e (50×4.6 mm) column, 50%→100% CH3CN gradient (0 to 3 min) and 100% CH3CN (3 to 8 min) were used as a mobile phase, and detection was carried out at a flow rate of 2 ml/min using CAD™ (Charged Aerosol Detection) and MS.

The target of a further data set is T1, CYP11A (Homo sapiens, UniProt P05108).
T1 construct: A 1.45-kb CYP11A1 gene fragment amplified as a result of the above-described reaction; expressed in transfected cells; host or cells: Escherichia coli BL21(DE3), plasmid pCYP11A-ARX (strain BL21CYP11)
T1 sequence (P05108 40-521): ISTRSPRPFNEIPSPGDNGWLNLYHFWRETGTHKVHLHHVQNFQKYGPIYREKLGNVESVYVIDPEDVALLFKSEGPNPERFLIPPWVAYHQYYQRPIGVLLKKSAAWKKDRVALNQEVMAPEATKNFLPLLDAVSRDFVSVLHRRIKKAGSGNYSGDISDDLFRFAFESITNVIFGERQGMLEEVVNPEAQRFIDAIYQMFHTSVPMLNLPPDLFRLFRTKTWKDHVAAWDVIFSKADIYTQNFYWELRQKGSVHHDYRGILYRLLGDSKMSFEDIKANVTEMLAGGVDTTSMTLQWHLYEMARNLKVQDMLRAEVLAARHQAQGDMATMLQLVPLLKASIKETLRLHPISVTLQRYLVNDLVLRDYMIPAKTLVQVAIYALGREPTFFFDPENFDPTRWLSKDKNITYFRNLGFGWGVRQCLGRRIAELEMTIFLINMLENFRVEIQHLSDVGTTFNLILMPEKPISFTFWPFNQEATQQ
The data set is described as follows: Conversion reaction of substrates by CYP11A-expressing Escherichia coli. It is filed as cell-based. The settings on record: for accumulated amount of pregnenolone / added substrate remained: same reaction as Example 6; for Conversion rate: same reaction as Example 6 (28° C., 5 hours). On the procedure:
as §1
A commercially available human testis cDNA (Origene Technologies, Inc.) was used as a template, and a CYP11A1 gene was amplified by PCR using a primer CYP11A-1F (SEQ ID NO: 19) and a primer CYP11A-2R (SEQ ID NO: 20), and also using KOD plus polymerase (TOYOBO Co., Ltd.). The temperature conditions applied during the PCR were 94° C./3 min, 30 cycles of (94° C./30 sec, 55° C./60 sec, and 72° C./90sec), and 72° C./5 min.
A 1.45-kb CYP11A1 gene fragment amplified as a result of the above-described reaction was purified using QIAquick PCR purification Kit (manufactured by QIAGEN), and it was then digested with Nde I and Spe I. Thereafter, the digest was ligated to Escherichia coli expression vector pT7NS-camAB, using T4 DNA ligase, and Escherichia coli DH5α was then transformed with the obtained expression vector, so as to construct a plasmid pCYP11A-camAB. Subsequently, using T4 DNA ligase, the previously prepared bovine-derived adrenodoxin reductase protein-adrenodoxin gene (adr-adx) fragment was inserted into and ligated to each of the Spe I and Bam HI sites of the above-described plasmid, and Escherichia coli DH5a was then transformed with the obtained plasmid, so as to construct plasmid pCYP11A-ARX. Thereafter, Escherichia coli BL21(DE3) was transformed with the thus constructed plasmid, and the obtained cell strain was named as BL21CYP11. The used adx-adr fragment was amplified by PCR with a plasmid pKARX (Sawada et. al. Eur. J. Biochem. 265, 950-956,1999) as a template, using primer bAdxR-1F (SEQ ID NO: 21) and primer bAdx-2R (SEQ ID NO: 22), and also using KOD plus polymerase (manufactured by TOYOBO Co., Ltd.). The temperature condition applied during the PCR were 94° C./3 min, 25 cycles of (94° C./30 sec, 60° C./30 sec, and 72° C./120sec), and 72° C./5 min.
Each substrate was subjected to the same reaction as that of Example 6, separately, and the reaction solution was then subjected to liquid separation using 1 ml of ethyl acetate. The reaction product and the substrate were extracted, and were then analyzed by HPLC.

Substrate in data set [1]: CC(C)CCC[C@@H](C)[C@H]1CC[C@H]2[C@@H]3CCC4=CC(=O)CC[C@]4(C)[C@H]3CC[C@]12C
The data set is described as follows: purified protein, by the assay type. As to conditions: other: 4-cholesten-3-one 0.1 to 500 μM, pH 7.5, 15° C., 60 minutes, Lineweaver-Burk plot.

Consider `CC(C)CCC[C@](C)(O)[C@H]1CC[C@H]2[C@@H]3CC=C4C[C@@H](O)CC[C@]4(C)[C@H]3CC[C@@]21C` [(20S)-20-hydroxy-cholesterol], for which, in the data set with CYP204A1, the “accumulated amount of pregnenolone” value turned out to be 68.2 mg/L, the added substrate remained is 25.2% and the Conversion rate came to 68.2%. In addition, in the data set on CYPSS204A, the “accumulated amount of pregnenolone” value is 89.2 mg/L, the added substrate remained was determined as 0% and the Conversion rate worked out at 89.2%. Besides, on CYP11A, the “accumulated amount of pregnenolone” value worked out at 16.3 mg/L, the added substrate remained was found to be 98.8% and the Conversion rate came out at 16.3%.
For the molecule `CC(C)CC[C@@H](O)[C@](C)(O)[C@H]1CC[C@H]2[C@@H]3CC=C4C[C@@H](O)CC[C@]4(C)[C@H]3CC[C@]12C` [(20R,22R)-20,22-dihydroxy-cholesterol], the entries for the “accumulated amount of pregnenolone” value in the data set with CYP204A1, in the data set on CYPSS204A and at CYP11A were 51.6 mg/L, 53.0 mg/L and 32.3 mg/L, respectively. Also, the added substrate remained in the data set with CYP204A1 is 0%; with CYPSS204A, 0%; on CYP11A it was 51.6%. Further, the Conversion rate with CYP204A1 amounted to 51.6%; in the data set with CYPSS204A it was 53.0%; at CYP11A it was 32.3%.
For the molecule `CC(C)CC[C@@H](O)[C@@H](C)[C@H]1CC[C@H]2[C@@H]3CCC4=CC(=O)CC[C@]4(C)[C@H]3CC[C@]12C` [(22R)-22-hydroxycholest-4-en-3-one], the Conversion rate in the data set with CYP204A1 was 80.9%; in the data set with CYPSS204A it was 42.3%; at CYP11A it was 0.4%. The added substrate remained in the data set on CYPSS204A stood at 2.7%; on CYP11A, 99.7%.
Regarding `CC(C)CC[C@H](O)[C@](C)(O)[C@H]1CC[C@H]2[C@@H]3CCC4=CC(=O)CC[C@]4(C)[C@H]3CC[C@]12C` [(20R,22S)-20,22-dihydroxycholest-4-en-3-one], the Conversion rate in the data set with CYP204A1 is recorded as 41.7%; in the data set with CYPSS204A, 69.8%; at CYP11A, 0%. For the same molecule, the results for the added substrate remained in the data set on CYPSS204A and at CYP11A were 0.6% and 100%, respectively.
In the case of `CC[C@H](/C=C/[C@@H](C)[C@H]1CC[C@H]2[C@@H]3CC=C4C[C@@H](O)CC[C@]4(C)[C@H]3CC[C@]12C)C(C)C` [stigmasterol], in the data set with CYP204A1, the Conversion rate is 6.5%. In addition, in the data set on CYPSS204A, the “accumulated amount of side-chain cleavage product” value worked out at 5.8 mg/L, the added substrate remained was determined as 70.8% and the Conversion rate is 5.8%. At CYP11A, this molecule showed an added substrate remained of 100% and a Conversion rate of 0%.

B1: Novosphingobium aromaticivorans ATCC 700278 P450scc CYP204A1, wild type, SEQ ID NO: 23 (Novosphingobium aromaticivorans DSM 12444) (protein)
chain: MARAATAAGNGLPLLDGGVPLLGHLAQFFRDPVSVLKRGYRSKGRLFAMNFMGQRMNVMLGPEHNRFFFEETDKLLSIRESMPFFLKMFSPEFYSFAEMDEYLRQRSIIMPRFKAASMKQYVPVMVEESLNLVERLGEEGEFDLIPTLGPVVMDIAAHSFMGREFHEKLGHEFFELFRDFSGGMEFVLPLWLPTPKMVKSQRAKRKLHAILQSWIDKRRAAPLDPPDFFQTMIETKYPDGRPVPDEIIRHLILLLVWAGHETTAGQVSWALADLLQNPDYQKVLRGEISSLLGGSDGRDLGWEQAVAMEKMDLALRETERLHPVAYMLSRKARADIERDGYVIRKGEFVLLAPSVSHRMEETFRNPDAYDPERFNPANPDAQIESNSLIGFGGGVHRCAGVNFARMEMKVLVAILLQNFDMELMDEVRPIAGASTYWPAQPCRVRYRRRKLDGSEAGADMAALARAAGCPAHT
For the molecule B1, the Km (as a rule, the concentration of substrate that gives half-maximal velocity) in data set [1] was determined as 1.0 µM.

For the origin of these results see patent US20120178124A1, “STEROL SIDE CHAIN-CLEAVING ENZYME PROTEIN AND USE THEREOF” (MITSUBISHI CHEMICAL CORPORATION, priority 2009, published 2012).
